Experimental data: patent publication US6521635B1, “Inhibition of MXR transport by acridine derivatives” (priority 2000, dated 2003)

Columns and labels:
[1] = test system: S1 parental cells (low endogenous level of Pgp); assay: Rhodamine efflux assay (flow cytometry); format: cell-based, human
Protocol: (§1) The rhodamine and calcein efflux assays were performed as previously described with minor modifications (Lee et al. (1994) Mol. Pharmacol. 46: 627-638; Versantvoort et al. (1995) Int. J. Cancer 63: 855-862.) Suspensions of logarithmic phase cells were obtained from tissue culture flasks by trypsinization and transferred into round-bottom 96-well plates. […] After the efflux period, the cells were washed with DPBS and placed on ice. A FACSort flow cytometer (Becton Dickinson, San Jose, Calif.) with a 488-nm argon laser was used to analyze the samples. Rhodamine 123 or calcein fluorescence was collected after a 530 nm bandpass filter. A minimum of 10,000 events was collected per sample and the samples were gated on forward scatter versus side scatter to exclude clumps and debris; dead cells were excluded based on propidium iodide staining.
(§2) To provide confirmation, rhodamine efflux assays were performed. […] After an accumulation and efflux period, rhodamine fluorescence was quantitated by flow cytometric analysis. The results are depicted in FIG. 2. […] PSC 833, a cyclosporin-D analog, was used as a positive control for Pgp antagonism.

[2] = test system: S1-B1-20 Pgp-overexpressing cells; assay: In vitro cytotoxicity assay (sulforhodamine B staining); format: cell-based, human; details: GF120918 at 1 μM, Pgp-expressing S1-B1-20 cells
Protocol: (§3) Reversal of resistance was determined in cytotoxicity assays using the sulforhodamine staining (Skehan et al. (1990) J. Natl. […] Briefly, cells were harvested and seeded at a density of 2000 cells/well for the colon cancer lines and 4000 cells/well for the breast cancer cell lines in flat-bottom 96-well plates. The cells were incubated for 24 h at 37° C. to allow attachment prior to addition of the drugs. […] Each concentration was tested in triplicate and the controls were done in replicates of eight. Results are representative of from three to six experiments. […] After incubation, the cells were fixed in TCA and stained with sulforhodamine B (SRB) solution (0.4% wt/vol in 1% acetic acid) (Sigma Chemical, St Louis, Mo.). Optical densities were read on a Bio-Rad plate reader (Hercules, Calif.) at an absorbance of 540 nm.

MCF-7 parental cells = assay: as above; format: cell-based, human; details: Homo sapiens, MCF7, read-out: IC50 for GF120918 alone; MCF-7 parental cells
Protocol: as §3

S1 parental cells = assay: as above; format: cell-based, human; details: Homo sapiens, read-out: IC50 for GF120918 alone; S1 parental cells
Protocol: as §3

[3] = as above; format: cell-based, human; details: human
Protocol: as §3

patients = details: cited from earlier work
[4] = test system: MRP-overexpressing MCF-7/VP cells; assay: In vitro cytotoxicity assay (sulforhodamine B staining); format: cell-based, human
Protocol: Reversal of resistance was determined in cytotoxicity assays using the sulforhodamine staining (Skehan et al. (1990) J. Natl. Cancer Inst. 82: 1107-1112). Briefly, cells were harvested and seeded at a density of 2000 cells/well for the colon cancer lines and 4000 cells/well for the breast cancer cell lines in flat-bottom 96-well plates. The cells were incubated for 24 h at 37° C. to allow attachment prior to addition of the drugs. Mitoxantrone and topotecan at various concentrations were added to the cells with or without the reversal agent and were incubated at 37° C. in a fully humidified atmosphere of 5% CO2 for 96 h. Each concentration was tested in triplicate and the controls were done in replicates of eight.
After incubation, the cells were fixed in TCA and stained with sulforhodamine B (SRB) solution (0.4% wt/vol in 1% acetic acid) (Sigma Chemical, St Louis, Mo.). Optical densities were read on a Bio-Rad plate reader (Hercules, Calif.) at an absorbance of 540 nm.

[5] = molecular target: Pgp (Pgp-overexpressing S1-B1-20 cells) (Homo sapiens, UniProt P08183)
Protocol: as §1, §2

Chain of Pgp (Pgp-overexpressing S1-B1-20 cells) (P08183 whole entry): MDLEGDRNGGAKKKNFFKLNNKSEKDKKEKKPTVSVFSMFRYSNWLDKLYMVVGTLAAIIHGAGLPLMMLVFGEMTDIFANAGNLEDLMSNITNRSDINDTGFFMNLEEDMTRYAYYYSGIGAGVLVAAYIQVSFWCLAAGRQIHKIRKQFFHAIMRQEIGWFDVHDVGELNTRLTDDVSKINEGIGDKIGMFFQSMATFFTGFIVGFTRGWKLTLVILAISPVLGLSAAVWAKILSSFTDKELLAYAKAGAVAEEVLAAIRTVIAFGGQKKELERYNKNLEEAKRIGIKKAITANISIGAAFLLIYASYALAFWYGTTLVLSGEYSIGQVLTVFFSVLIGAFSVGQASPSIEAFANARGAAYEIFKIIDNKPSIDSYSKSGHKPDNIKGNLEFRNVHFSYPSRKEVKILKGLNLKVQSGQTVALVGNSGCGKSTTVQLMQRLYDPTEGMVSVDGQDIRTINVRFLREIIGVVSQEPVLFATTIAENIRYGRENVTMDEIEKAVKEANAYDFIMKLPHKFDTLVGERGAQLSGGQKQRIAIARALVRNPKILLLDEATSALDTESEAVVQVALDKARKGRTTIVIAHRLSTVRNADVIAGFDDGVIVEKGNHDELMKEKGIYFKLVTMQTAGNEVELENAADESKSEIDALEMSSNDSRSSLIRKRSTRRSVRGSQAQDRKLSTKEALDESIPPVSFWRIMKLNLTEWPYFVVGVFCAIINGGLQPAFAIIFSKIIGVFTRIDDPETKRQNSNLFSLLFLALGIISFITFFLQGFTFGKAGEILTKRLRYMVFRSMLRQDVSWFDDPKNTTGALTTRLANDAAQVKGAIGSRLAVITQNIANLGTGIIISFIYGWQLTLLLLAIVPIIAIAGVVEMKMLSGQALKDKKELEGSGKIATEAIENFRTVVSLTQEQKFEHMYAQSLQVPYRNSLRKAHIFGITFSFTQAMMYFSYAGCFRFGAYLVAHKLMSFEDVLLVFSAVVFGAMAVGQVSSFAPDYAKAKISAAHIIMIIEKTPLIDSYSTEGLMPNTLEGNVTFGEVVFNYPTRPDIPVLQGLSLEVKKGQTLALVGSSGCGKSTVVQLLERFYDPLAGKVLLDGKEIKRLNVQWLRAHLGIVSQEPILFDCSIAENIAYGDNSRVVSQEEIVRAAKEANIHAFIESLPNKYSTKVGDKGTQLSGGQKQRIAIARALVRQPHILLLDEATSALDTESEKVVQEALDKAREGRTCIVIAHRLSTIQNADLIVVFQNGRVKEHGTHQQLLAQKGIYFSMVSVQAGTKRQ

## COc1cc2c(cc1OC)CN(CCc1ccc(NC(=O)c3cccc4c(=O)c5cccc(OC)c5[nH]c34)cc1)CC2 [GF120918]
[1]
  effect on rhodamine accumulation and efflux: small increase in rhodamine accumulation and a decrease in efflux
[2]
  sensitization to mitoxantrone: 31 fold
MCF-7 parental cells
  IC50: 40 µM
S1 parental cells
  IC50: 15.2 µM
[3]
  IC50 at 96 h: 3.6 µM
patients
  toxicity in phase I clinical trials: little toxicity
[4]; Homo sapiens, MCF7-VP, read-out: IC50 for GF120918 alone, MCF-7/VP cells
  IC50: 7.5 µM
[4]; cytotoxicity reversal studies with etoposide, MRP-overexpressing MCF-7 VP-16 cells (data not shown)
  reversing MRP-mediated resistance: ineffective
[5]
  concentration giving complete inhibition of rhodamine efflux: 250 nM
  lowest concentrations at which rhodamine 123 efflux was decreased: 25 to 50 nM
